How the values were obtained:
Assay in all cases: Kinase selectivity, DiscoverX scanMAX Kinase assay panel (% control)
Format in all cases: binding
[1] = target: T1, kinases of the scanMAX Kinase assay panel (Homo sapiens, UniProt O95819); conditions: MAP4K4; 1 uM
T1 construct: purchased DiscoverX Co. (contract measurement) scanMAX Kinase assay panel
Method in brief: (§1)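 Percent of control computed as (compound − positive control)/(negative control − positive control) × 100, DMSO defining 100% and positive control 0%. Each panel kinase exposed to 1 uM compound; values under 35% taken to mean the compound acts on that kinase.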

[2] = target: T2, kinases of the scanMAX Kinase assay panel (Homo sapiens, UniProt P45984); conditions: JNK2; 1 uM
T2 construct: purchased DiscoverX Co. (contract measurement) scanMAX Kinase assay panel
Method in brief: as §1

[3] = target: T3, kinases of the scanMAX Kinase assay panel (Homo sapiens, UniProt P57078); conditions: kinase RIPK4; 1 uM in DMSO
T3 construct: purchased DiscoverX Co. (contract measurement) scanMAX Kinase assay panel
T3 sequence (P57078 1-832): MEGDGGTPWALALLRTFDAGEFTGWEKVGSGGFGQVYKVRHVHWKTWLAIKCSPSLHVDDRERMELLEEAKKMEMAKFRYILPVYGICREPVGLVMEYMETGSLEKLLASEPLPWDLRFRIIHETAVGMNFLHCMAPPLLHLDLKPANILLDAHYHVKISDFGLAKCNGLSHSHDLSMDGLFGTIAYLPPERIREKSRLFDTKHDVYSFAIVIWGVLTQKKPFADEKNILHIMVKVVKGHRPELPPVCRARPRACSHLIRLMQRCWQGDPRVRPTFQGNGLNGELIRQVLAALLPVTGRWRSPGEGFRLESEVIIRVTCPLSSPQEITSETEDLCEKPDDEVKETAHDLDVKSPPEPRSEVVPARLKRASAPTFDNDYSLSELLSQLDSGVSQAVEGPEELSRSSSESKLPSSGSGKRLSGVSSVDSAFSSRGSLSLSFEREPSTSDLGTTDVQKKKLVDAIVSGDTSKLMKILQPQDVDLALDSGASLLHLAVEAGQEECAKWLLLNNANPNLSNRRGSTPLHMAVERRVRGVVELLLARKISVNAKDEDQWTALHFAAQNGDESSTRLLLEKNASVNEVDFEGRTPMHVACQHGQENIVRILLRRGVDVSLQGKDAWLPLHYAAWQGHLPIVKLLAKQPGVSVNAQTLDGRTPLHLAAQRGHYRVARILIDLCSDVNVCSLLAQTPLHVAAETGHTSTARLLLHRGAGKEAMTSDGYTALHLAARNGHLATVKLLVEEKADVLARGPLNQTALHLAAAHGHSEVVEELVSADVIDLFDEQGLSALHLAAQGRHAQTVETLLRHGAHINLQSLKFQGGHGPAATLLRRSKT
Method in brief: as §1

[4] = target: T4, kinases of the scanMAX Kinase assay panel (Homo sapiens, UniProt Q8TDR2); conditions: kinase STK35; 1 uM in DMSO
T4 construct: purchased DiscoverX Co. (contract measurement) scanMAX Kinase assay panel
Method in brief: as §1

[5] = target: T5, kinases of the scanMAX Kinase assay panel (Homo sapiens, UniProt Q8WXR4); conditions: MYO3B; 1 uM
T5 construct: purchased DiscoverX Co. (contract measurement) scanMAX Kinase assay panel
T5 sequence (Q8WXR4 1-1341): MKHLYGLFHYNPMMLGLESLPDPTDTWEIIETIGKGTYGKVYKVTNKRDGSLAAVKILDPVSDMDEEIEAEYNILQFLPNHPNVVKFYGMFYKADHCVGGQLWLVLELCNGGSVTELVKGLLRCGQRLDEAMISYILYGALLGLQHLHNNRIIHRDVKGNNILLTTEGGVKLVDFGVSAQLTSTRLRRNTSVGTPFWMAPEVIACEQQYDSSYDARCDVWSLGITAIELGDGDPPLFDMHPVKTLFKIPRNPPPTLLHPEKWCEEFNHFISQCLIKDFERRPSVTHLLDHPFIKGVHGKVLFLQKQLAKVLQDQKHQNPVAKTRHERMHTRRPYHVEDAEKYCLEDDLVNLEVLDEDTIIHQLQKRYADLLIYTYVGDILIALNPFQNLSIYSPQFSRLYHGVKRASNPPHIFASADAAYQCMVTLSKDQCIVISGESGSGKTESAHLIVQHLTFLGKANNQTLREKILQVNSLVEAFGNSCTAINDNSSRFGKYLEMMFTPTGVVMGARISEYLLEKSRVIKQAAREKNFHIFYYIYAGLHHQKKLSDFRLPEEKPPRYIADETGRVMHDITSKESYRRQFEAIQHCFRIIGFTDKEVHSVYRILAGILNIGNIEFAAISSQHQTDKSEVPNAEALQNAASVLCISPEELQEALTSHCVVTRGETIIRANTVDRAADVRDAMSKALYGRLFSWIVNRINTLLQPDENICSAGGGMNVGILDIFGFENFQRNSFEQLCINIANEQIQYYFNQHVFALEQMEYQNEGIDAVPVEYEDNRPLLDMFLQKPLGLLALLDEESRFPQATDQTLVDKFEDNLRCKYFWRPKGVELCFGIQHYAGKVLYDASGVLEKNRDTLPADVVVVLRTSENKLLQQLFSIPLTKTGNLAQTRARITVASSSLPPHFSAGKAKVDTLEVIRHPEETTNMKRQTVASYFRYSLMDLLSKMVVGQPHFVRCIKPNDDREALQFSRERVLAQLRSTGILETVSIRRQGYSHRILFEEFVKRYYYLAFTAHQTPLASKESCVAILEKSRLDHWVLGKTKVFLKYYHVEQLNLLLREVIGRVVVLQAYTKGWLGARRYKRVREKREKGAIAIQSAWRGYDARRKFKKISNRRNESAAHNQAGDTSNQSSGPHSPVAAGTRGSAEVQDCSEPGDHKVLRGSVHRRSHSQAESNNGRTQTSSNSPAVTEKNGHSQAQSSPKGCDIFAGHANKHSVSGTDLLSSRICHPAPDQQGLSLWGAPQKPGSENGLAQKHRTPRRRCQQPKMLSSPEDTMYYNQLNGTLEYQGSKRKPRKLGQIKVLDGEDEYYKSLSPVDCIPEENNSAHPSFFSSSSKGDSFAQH
Method in brief: as §1

[6] = target: T6, kinases of the scanMAX Kinase assay panel (Homo sapiens, UniProt Q9BYP7); conditions: kinase WNK3; 1 uM in DMSO
T6 construct: purchased DiscoverX Co. (contract measurement) scanMAX Kinase assay panel
Method in brief: as §1

[7] = target: T7, kinases of the scanMAX Kinase assay panel (Homo sapiens, UniProt Q9UM73); conditions: ALK; 1 uM
T7 construct: purchased DiscoverX Co. (contract measurement) scanMAX Kinase assay panel
Method in brief: as §1

T6 sequence (Q9BYP7 whole entry): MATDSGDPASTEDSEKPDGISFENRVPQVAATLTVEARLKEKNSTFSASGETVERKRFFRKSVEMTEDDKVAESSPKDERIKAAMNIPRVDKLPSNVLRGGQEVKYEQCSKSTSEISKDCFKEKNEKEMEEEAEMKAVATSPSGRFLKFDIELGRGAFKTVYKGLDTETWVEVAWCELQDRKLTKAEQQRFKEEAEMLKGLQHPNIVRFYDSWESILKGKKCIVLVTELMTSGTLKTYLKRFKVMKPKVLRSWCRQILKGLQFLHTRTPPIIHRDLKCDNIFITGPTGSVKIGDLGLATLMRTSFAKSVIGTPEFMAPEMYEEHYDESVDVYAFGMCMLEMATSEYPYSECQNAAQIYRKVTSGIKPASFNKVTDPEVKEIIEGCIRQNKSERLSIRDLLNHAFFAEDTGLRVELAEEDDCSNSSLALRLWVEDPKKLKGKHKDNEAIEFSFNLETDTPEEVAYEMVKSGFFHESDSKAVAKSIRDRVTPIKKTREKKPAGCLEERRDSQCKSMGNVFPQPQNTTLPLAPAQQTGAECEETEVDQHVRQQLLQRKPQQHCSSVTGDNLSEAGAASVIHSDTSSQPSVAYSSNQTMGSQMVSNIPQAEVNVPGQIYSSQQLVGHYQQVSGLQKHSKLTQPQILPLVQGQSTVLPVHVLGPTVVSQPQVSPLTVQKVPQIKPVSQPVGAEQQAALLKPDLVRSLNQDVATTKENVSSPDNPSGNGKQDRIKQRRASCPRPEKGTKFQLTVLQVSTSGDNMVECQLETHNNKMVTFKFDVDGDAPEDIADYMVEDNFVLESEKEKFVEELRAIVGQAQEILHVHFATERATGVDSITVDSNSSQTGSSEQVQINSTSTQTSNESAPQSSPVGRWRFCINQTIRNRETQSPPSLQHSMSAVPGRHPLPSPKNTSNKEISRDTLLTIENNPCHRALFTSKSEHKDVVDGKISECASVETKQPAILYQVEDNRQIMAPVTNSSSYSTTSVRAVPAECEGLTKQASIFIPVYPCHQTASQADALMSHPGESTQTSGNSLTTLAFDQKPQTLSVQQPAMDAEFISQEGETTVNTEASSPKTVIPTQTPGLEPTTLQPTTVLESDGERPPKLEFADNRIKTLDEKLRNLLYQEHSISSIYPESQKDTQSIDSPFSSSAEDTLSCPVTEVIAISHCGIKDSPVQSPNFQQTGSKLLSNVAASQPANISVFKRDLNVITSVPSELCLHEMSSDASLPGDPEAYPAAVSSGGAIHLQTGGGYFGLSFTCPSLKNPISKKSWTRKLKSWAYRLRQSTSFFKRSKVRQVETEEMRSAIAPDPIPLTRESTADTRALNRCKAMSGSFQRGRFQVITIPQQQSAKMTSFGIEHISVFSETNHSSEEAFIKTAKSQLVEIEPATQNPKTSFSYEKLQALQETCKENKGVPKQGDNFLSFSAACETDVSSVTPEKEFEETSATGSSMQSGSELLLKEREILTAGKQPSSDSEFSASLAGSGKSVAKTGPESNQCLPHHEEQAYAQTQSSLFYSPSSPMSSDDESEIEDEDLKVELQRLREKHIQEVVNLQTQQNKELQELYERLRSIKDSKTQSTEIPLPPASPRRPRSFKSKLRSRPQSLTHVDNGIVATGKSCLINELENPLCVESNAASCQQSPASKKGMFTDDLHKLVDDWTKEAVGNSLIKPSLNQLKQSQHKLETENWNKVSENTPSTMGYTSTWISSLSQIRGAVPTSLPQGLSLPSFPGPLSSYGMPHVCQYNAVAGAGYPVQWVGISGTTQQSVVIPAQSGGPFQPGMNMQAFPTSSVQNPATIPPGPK
T4 sequence (Q8TDR2 whole entry): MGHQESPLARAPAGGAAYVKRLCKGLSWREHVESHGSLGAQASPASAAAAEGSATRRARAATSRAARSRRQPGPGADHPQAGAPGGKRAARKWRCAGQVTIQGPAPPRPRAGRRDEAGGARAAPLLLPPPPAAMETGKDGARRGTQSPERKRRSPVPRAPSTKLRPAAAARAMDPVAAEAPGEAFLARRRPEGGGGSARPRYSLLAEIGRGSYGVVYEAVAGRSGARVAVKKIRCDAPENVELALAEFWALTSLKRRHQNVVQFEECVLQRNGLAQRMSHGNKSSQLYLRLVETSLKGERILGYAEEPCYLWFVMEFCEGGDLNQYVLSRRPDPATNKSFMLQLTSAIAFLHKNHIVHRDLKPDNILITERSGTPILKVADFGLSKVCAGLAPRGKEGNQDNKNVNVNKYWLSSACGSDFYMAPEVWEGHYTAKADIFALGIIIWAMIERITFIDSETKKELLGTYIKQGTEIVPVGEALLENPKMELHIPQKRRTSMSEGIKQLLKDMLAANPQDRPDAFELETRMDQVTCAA
T7 sequence (Q9UM73 19-1620): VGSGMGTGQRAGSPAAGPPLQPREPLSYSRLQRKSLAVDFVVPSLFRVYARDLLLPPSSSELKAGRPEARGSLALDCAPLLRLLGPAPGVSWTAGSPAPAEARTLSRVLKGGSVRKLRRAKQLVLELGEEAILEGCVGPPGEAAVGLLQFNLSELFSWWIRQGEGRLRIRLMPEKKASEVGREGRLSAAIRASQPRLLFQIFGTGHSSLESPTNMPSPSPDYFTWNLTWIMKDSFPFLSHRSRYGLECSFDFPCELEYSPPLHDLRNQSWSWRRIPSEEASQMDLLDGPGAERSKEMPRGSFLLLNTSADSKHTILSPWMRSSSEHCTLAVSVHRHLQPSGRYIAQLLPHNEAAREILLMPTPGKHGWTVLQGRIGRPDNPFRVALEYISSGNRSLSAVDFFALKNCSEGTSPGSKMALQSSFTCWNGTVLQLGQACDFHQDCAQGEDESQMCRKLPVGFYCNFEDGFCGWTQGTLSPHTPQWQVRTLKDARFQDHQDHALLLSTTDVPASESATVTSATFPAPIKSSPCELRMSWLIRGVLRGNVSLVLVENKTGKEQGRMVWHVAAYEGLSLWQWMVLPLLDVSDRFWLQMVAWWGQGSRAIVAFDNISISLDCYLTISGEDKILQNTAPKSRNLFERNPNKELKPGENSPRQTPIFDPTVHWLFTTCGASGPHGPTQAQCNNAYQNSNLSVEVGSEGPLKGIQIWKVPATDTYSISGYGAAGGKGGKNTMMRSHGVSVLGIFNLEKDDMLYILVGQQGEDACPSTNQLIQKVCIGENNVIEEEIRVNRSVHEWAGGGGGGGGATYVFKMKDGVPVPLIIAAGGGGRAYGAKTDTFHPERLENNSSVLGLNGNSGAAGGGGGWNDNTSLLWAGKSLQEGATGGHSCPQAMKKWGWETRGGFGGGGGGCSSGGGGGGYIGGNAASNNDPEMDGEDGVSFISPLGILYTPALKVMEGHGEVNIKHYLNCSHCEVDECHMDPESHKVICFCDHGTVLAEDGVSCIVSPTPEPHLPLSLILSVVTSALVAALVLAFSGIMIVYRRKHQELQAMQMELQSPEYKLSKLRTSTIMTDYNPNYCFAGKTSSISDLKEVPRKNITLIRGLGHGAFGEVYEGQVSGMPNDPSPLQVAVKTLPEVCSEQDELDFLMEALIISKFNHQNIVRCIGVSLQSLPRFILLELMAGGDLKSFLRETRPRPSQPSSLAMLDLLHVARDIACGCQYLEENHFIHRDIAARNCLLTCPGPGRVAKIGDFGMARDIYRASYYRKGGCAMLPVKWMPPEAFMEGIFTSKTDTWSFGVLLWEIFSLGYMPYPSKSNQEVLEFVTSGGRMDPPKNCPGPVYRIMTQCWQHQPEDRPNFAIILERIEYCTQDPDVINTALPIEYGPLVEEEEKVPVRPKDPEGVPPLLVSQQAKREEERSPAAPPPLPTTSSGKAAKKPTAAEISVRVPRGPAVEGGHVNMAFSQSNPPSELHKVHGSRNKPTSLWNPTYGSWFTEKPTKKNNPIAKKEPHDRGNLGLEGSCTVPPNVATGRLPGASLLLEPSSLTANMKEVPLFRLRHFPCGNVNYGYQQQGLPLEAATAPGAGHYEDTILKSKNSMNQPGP
T2 sequence (P45984 whole entry): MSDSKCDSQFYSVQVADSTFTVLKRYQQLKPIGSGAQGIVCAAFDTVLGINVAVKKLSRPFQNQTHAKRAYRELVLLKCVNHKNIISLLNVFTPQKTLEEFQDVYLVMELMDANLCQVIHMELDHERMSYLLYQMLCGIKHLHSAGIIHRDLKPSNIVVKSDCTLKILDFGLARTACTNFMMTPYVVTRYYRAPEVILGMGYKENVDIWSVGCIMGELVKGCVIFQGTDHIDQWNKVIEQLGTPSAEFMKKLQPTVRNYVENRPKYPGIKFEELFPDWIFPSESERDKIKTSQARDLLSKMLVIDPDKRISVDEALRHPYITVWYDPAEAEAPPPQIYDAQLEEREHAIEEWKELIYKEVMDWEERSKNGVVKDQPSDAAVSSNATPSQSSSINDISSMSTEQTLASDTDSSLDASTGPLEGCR

Row | SMILES | remaining binding at 1 µM [1] [%] | remaining binding at 1 µM [2] [%] | remaining binding at 1 µM [3] [%] | remaining binding at 1 µM [4] [%] | remaining binding at 1 µM [5] [%] | remaining binding at 1 µM [6] [%] | remaining binding at 1 µM [7] [%]
1 | CNc1nc(Nc2ccc(C(=O)N3CCOCC3)cc2OC)nc2[nH]cc(C#N)c12 [Example 1, 2-((2-methoxy-4-(morpholine-4-carbonyl)phenyl)amino)-4-(methylamino)-7H-pyrrolo[2,3-d]pyrimidine-5-carbonitrile] | 82 | 0.1 | 72 | 100 | 84 | 68 | 13
2 | CC1(Nc2nc(Nc3cnn([C@H]4CCN(C5COC5)C[C@@H]4F)c3Cl)nc3[nH]cc(C#N)c23)CC1 [Example 52, 2-((5-chloro-1-((3S,4S)-3-fluoro-1-(oxetane-3-yl)piperidine-4-yl)-1H-pyrazole-4-yl)amino)((1-methylcyclopropyl)amino)-7H-pyrrolo[2,3-d]pyrimidine-5-carbonitrile] | 18 | 0 | 1.6 | 14 | 10 | 55 | 3
3 | CCNc1nc(Nc2ccc(C(=O)N3CCC(N4CCOCC4)CC3)cc2OC)nc2[nH]cc(C(F)(F)F)c12 [Example 104, (4-((4-(ethylamino)-5-(trifluoromethyl)-7H-pyrrolo[2,3-d]pyrimidine-2-yl)amino)-3-methoxyphenyl)(4-morpholinopiperidine-1-yl)methanone] | 100 | 23 | 0.6 | 100 | 19 | 100 | 0.35

From US11208412B2 (DAEGU-GYEONGBUK MEDICAL INNOVATION FOUNDATION, priority 2017, dated 2021)
